How the values were obtained:
[1] = test system: D4R; settings: initially characterized as a full agonist; cited from earlier work
[2] = molecular target: human D3R (Homo sapiens, UniProt P35462); experiment: β-Arrestin recruitment assay; format: cell-based; settings: agonist mode; percentage of the maximum dopamine response; CHO-K1
[3] = molecular target: T1, human D4R (Homo sapiens, UniProt P21917); experiment: cAMP inhibition assay; format: cell-based; settings: read-out: Emax at D4R (partial agonist)
T1 sequence (P21917 1-419): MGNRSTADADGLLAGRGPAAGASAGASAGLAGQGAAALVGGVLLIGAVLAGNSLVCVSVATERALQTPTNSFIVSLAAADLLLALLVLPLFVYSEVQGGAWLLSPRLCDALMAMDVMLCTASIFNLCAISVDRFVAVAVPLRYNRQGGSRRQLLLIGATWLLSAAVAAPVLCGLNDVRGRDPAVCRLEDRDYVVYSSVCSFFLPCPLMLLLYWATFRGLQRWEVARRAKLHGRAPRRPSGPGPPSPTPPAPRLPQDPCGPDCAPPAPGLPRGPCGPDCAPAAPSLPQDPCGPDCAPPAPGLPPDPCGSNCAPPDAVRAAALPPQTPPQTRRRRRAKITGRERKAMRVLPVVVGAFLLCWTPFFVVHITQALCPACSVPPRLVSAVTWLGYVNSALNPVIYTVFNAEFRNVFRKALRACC

human D3R, sequence (P35462 whole entry): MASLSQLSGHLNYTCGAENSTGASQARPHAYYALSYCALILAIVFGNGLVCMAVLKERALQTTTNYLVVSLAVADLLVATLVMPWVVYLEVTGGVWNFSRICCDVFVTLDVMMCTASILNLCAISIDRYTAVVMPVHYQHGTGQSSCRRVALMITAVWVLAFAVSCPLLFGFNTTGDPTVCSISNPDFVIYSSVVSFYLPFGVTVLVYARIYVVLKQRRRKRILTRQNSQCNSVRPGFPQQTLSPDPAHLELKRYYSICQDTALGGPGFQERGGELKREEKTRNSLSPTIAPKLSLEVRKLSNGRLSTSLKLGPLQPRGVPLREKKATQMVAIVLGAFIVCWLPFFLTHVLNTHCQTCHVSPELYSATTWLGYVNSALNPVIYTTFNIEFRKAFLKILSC

Cc1cccc(NC(=O)CN2CCC(c3ccccn3)CC2)c1 [Compound 1, 2-(4-(pyridin-2-yl)piperidin-1-yl)-N-(m-tolyl)acetamide]
intrinsic activity at D4R [1]: 83% | D3R efficacy β-arr Emax [2]: very low potency and efficacy | Emax [3]: 23 to 62%

From publication PMC6466480 (Journal of Medicinal Chemistry, 2019)
